We go through one compound from patent US20210207095A1, “METHODS OF ACTIVATING CELLS VIA PTP 1B INHIBITION” (Monash University, priority 2018, published 2021).

The test system of data set [1] is AT-3 OVA breast cancer cells. Put plainly: Syngeneic AT-3 OVA breast cancer tumour growth in mice treated with PTP1B inhibitor. The following applies: for Tumor growth: AT-3 OVA cells in mammary fat pads, Ptpn1fl/fl and Lck-Cre;Ptpn1fl/fl female mice, 10 mg/kg i.p. every three days from day 17, vs untreated Ptpn1fl/fl, p<0.0001, 2-way ANOVA. The format is in vivo. The method, then: (§1) FIG. 20. PTP1B-specific inhibitor MSI-1436 (Trodusquemine) repressed tumor growth. 1×10^6 AT-3 OVA breast cancer cells suspended in 20 μl 1×DPBS were transplanted into mammary fat pads of T cell-specific PTP1B-deficient (Lck-Cre; Ptpn1^fl/fl; n=16) and PTP1B wild-type (Ptpn1^fl/fl; n=16) female mice. 17 days after the tumor cell transplantation, MSI-1436 was applied to recipient mice through intraperitoneal injection in 100 μl 0.9% (v/v) saline with the concentration of 10 mg per kilogram body weight. 8 out 16 mice from both Ptpn1^fl/fl and Lck-Cre; Ptpn1^fl/fl recipients were treated every three days with MSI-1436 before the start of the dark cycle. […] This was accompanied by a reduction in food intake and adiposity but no changes in lean mass (data not shown). Representative results (means±SEM) for the indicated numbers of mice and experiments are shown. Significances were determined using 2-tailed Mann-Whitney U Test.
Breast cancer cells were transplanted into mammary fat pads of mice that were “globally” ptp1b-deficient (Ptpn1^−/−) or T-cell specific ptp1b-deficient (Lck-Cre; Ptpn1^fl/fl). Tumour growth was monitored for 28 days after transplantation. […] (FIG. 18A). […] (FIG. 19A).

A short description of data set [2]: Body weight, food intake and body composition of tumour-bearing mice treated with PTP1B inhibitor. The data set is classed as in vivo. The method, then: as §1

With `CC(C)[C@@H](CC[C@@H](C)[C@H]1CC[C@H]2[C@@H]3[C@H](O)C[C@H]4C[C@@H](NCCCNCCCCNCCCN)CC[C@]4(C)[C@H]3CC[C@]12C)OS(=O)(=O)O` [MSI-1436, Trodusquemine], the Tumor growth entry in data set [1] (10 mg/kg) is given as “significantly suppressed”. Further, the Tumor growth entry in data set [1] (listed as MSI1436, 10 mg/kg) is reported as “repressed the growth”. In addition, the “Tumour burden in mice lacking PTP1B in T cells” value in data set [1] (Lck-Cre;Ptpn1fl/fl mice, treatment once every 3 days) is “did not lead to further reductions in tumour burden”. Besides, in data set [1] (MSI-1436-treated Ptpn1fl/fl mice vs non-treated counterparts, 10 mg/kg i.p. every three days, p<0.0001), the Tumor burden result is reported as “significant reduction of tumor burden”. In addition, the Body weight entry in data set [2] (Lck-Cre;Ptpn1fl/fl or Ptpn1fl/fl mice, 10 mg/kg i.p. every three days, p<0.0001) was “significant weight loss”. Also, in data set [2] (treated mice, data not shown), the Adiposity result is recorded as “reduction”, the Food intake entry is “reduction” and the Lean mass result is listed as “no changes”.
